Data set [1] has as its target T1, HCV NS3/4A protease complex, J4L6S strain (Hepatitis C virus genotype 1b, UniProt O92972, C1454S/C1711G).
T1 construct: DNA encoding the recombinant HCV NS3/4A protease complex (amino acids 1027 to 1711) for these strains; inferred from the pET21b vector and Ni-NTA purification; made in house; host or cells: Escherichia coli BL21 (DE3), pET21b
The data set is described as follows: FRET peptide assay to monitor HCV NS3/4A proteolytic activity (J4L6S strain). It counts as biochemical. From the text: HCV NS3 protease complexes, derived from the BMS strain, H77 strain or J4L6S strain, were generated, as described below. These purified recombinant proteins were generated for use in a homogeneous assay (see below) to provide an indication of how effective compounds of the present disclosure would be in inhibiting HCV NS3 proteolytic activity.
Serum from an HCV-infected patient was obtained from Dr. T. Wright, San Francisco Hospital. An engineered full-length cDNA (compliment deoxyribonucleic acid) template of the HCV genome (BMS strain) was constructed from DNA fragments obtained by reverse transcription-PCR (RT-PCR) of serum RNA (ribonucleic acid) and using primers selected on the basis of homology between other genotype 1a strains. From the determination of the entire genome sequence, a genotype 1a was assigned to the HCV isolate according to the classification of Simmonds et al. (See P Simmonds, K A Rose, S Graham, S W Chan, F McOmish, B C Dow, E A Follett, P L Yap and H Marsden, J. Clin. Microbiol., 31(6), 1493-1503 (1993)). […]

pIC50: −log10 of the molar value.

T1 sequence (O92972 1027-1711 C1454S/C1711G, one chain of several): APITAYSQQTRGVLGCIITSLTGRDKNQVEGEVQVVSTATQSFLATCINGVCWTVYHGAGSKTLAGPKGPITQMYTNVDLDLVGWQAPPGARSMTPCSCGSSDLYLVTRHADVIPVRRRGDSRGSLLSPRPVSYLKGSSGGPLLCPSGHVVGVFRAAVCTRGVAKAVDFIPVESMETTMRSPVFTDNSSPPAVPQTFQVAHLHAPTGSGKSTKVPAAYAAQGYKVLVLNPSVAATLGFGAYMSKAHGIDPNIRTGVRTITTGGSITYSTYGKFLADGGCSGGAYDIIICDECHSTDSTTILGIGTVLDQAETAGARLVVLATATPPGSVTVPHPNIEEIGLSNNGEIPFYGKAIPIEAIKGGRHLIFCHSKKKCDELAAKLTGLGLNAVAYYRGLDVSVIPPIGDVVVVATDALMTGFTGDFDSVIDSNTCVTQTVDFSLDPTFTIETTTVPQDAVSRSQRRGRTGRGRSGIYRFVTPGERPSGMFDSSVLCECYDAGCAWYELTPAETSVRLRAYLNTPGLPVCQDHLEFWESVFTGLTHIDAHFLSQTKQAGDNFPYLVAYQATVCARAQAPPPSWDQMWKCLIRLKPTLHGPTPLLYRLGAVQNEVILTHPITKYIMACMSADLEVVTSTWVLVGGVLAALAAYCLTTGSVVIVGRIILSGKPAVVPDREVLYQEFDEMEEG

For `CC(C)(C)OC(=O)N[C@H]1CCCCC/C=C\[C@@H]2C[C@@]2(C(=O)NS(=O)(=O)C2CC2)NC(=O)[C@@H]2C[C@@H](OC(=O)c3ccc(C#N)cc3)CN2C1=O` [Compound 26, 18-(4-cyanobenzoyloxy)-14-tert-butoxycarbonylamino-4-cyclopropylsulfonylaminocarbonyl-2,15-dioxo-3,16-diazatricyclo-[14.3.0.0^4,6]-nonadec-7-ene], the melting point (as a rule, the temperature, or range, at which the solid turns liquid) lay in the range of 164 to 166 °C. Besides, the pIC50 (in general, −log10 of the IC50, conventionally taken in molar units) in data set [1] was 9.64.
